Columns and labels:
Type in all cases: in vivo
[1] = test system: Heliothis virescens caterpillars; assay: Action against Heliothis virescens caterpillars; conditions: 144 h, 400 ppm spray mixture on young soybean plants, 10 caterpillars in the first stage, evaluation 6 days later, read-out: percentage reduction in population and percentage reduction in feeding damage (% activity)
Procedure: (§1) Young soybean plants are sprayed with an aqueous emulsion spray mixture comprising 400 ppm of test compound. After the spray-coating has dried, the soybean plants are populated with 10 caterpillars of Heliothis virescens in the first stage and placed in a plastics container. Evaluation is made 6 days later. The percentage reduction in population and the percentage reduction in feeding damage (% activity) are determined by comparing the number of dead caterpillars and the feeding damage on the treated plants with that on the untreated plants.

[2] = test system: Spodoptera littoralis caterpillars; assay: Action against Spodoptera littoralis; conditions: 72 h, 400 ppm spray mixture on young soybean plants, 10 caterpillars in the first stage, 3 days later, read-out: percentage reduction in population and percentage reduction in feeding damage (% activity)
Procedure: Young soybean plants are sprayed with an aqueous emulsion spray mixture comprising 400 ppm of test compound and, after the spray-coating has dried, the plants are populated with 10 caterpillars of Spodoptera littoralis in the first stage and then placed in a plastics container, 3 days later, the percentage reduction in population and the percentage reduction in feeding damage (% activity) are determined by comparing the number of dead caterpillars and the feeding damage on the treated plants with that on untreated plants.

[3] = test system: Plutella xylostella caterpillars; assay: Action against Plutella xylostella caterpillars; conditions: 72 h, 400 ppm spray mixture on young cabbage plants, 10 caterpillars in the third stage, evaluation 3 days later, read-out: percentage reduction in population and percentage reduction in feeding damage (% activity)
Procedure: as §1, with “cabbage” for “soybean”, “Plutella xylostella” for “Heliothis virescens”, “third” for “first”, “3” for “6”

Measured: inhibition at 400 ppm

C=C(COc1ccc(C(F)(F)F)cc1)COc1c(Cl)cc(OCC=C(Cl)Cl)cc1Cl [Compound 1.9, 1,3-dichloro-5-(3,3-dichloro-allyloxy)-2-[2-(4-trifluoromethyl-phenoxymethyl)-allyloxy]-benzene]
> 80%: all assays above

O=C(NCCCOc1c(Cl)cc(OCC=C(Cl)Cl)cc1Cl)C(=C(Cl)Cl)c1ccc(C(F)(F)F)cc1 [Compound 1.2, 3,3-dichloro-N-{3-[2,6-dichloro-4-(3,3-dichloro-allyloxy)-phenoxy]-propyl}-2-(4-trifluoromethyl-phenyl)-acrylamide]
> 80%: all assays above

Source: patent publication US7638514B2, “Pesticidally active phenol derivatives” (Syngenta Crop Protection, Inc., priority 2003, dated 2009)
